Patent US12486269B2 (Aconcagua Bio, Inc., priority 2024, dated 2025)

Columns and labels:
[1] = biological target: T1, human calcitonin receptor (CTR) (Homo sapiens, UniProt P30988); assay: Calcitonin Receptor (CTR) cAMP Assay; format: cell-based; details: COS7-human CTR Clone #2 stable cell line, cAMP dynamic 2 kit, 30 min; read-out: Calcitonin Receptor cAMP Stimulation Activity: EC50
T1 construct: expressed in transfected cells; host or cells: COS-7 (COS7-human CTR Clone #2)
T1 sequence (P30988 25-474): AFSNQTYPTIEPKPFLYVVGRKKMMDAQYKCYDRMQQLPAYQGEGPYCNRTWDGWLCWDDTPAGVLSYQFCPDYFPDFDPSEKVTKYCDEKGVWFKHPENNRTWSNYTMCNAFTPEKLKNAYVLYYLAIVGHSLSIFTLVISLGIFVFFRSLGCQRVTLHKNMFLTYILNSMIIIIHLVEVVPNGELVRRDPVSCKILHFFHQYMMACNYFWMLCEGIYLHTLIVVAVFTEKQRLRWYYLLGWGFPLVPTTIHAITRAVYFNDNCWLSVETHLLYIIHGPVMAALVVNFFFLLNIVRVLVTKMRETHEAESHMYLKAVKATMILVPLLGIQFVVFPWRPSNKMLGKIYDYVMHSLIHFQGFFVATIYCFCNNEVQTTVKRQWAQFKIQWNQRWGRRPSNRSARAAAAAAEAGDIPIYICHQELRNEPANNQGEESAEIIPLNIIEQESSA
Method in brief: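 cAMP accumulation was measured by HTRF cAMP dynamic 2 read at 665/615 nm, 1 h at room temperature, with results scaled between vehicle and positive control. Before detection, COS7-human CTR stable cells were stimulated 30 min at 37 °C with compound (4-fold dilutions) in IBMX-containing HBSS/HEPES/casein buffer.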

[2] = biological target: T2, COS-7/AMY3 (human calcitonin receptor (CTR) and RAMP3) (Homo sapiens, UniProt O60896+P30988); assay: Amylin Receptor cAMP Assay II; format: cell-based; details: values marked **: Amylin Receptor cAMP Assay II; COS-7/AMY3 cells, cAMP dynamic 2 kit, 30 min; read-out: Amylin Receptor cAMP Stimulation Activity: EC50
T2 construct: expressed in transfected cells; host or cells: COS-7
T2 sequence (O60896 24-148, one chain of several): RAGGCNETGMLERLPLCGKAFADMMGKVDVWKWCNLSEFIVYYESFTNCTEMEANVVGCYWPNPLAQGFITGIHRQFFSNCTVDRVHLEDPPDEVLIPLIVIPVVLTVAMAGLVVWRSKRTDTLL
Method in brief: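 Agonist-induced cAMP was quantified by HTRF ratio at 665/615 nm and expressed as % of the window from vehicle to MAX control. Stimulation lasted 30 min at 37 °C in HBSS/20 mM HEPES/0.5 mM IBMX/0.1% casein, using stable human CTR+RAMP3 (AMY3) COS-7 cells at 2000 per well.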

Structure (SMILES)	EC50 [1] [nM]	EC50 [2] [nM]
O=C1c2c(nc(CCc3ccc(F)cc3)c(-c3n[nH]c(=O)o3)c2-c2cc3ccnc(N[C@@H]4CCc5cc(F)c(F)cc54)c3s2)C23CC(CN12)C3 [Compound 190, (R)-5-(4-(7-((5,6-difluoro-2,3-dihydro-1H-inden-1-yl)amino)thieno[2,3-c]pyridin-2-yl)-2-(4-fluorophenethyl)-5-oxo-8,9-dihydro-5H,7H-8,9a-methanopyrido[2,3-a]pyrrolizin-3-yl)-1,3,4-oxadiazol-2(3H)-one]	0.00786	0.184
COc1c(F)c(F)cc2c1CC[C@H]2Nc1nccc2cc(-c3c4c(nc(CCc5ccc(F)cc5)c3-c3n[nH]c(=O)o3)[C@@H]3CCCN3C4=O)sc12 [Compound 192, 5-((S)-4-(7-(((R)-5,6-difluoro-4-methoxy-2,3-dihydro-1H-inden-1-yl)amino)thieno[2,3-c]pyridin-2-yl)-2-(4-fluorophenethyl)-5-oxo-7,8,9,9a-tetrahydro-5H-pyrido[2,3-a]pyrrolizin-3-yl)-1,3,4-oxadiazol-2(3H)-one]	0.00532	0.8
COc1c(F)ccc2c1CC[C@H]2Nc1nc(C)cc2cc(-c3c4c(nc(CCc5ccc(F)cc5)c3-c3n[nH]c(=O)o3)C35CC(CN3C4=O)C5)sc12 [Compound 193, (R)-5-(4-(7-((5-fluoro-4-methoxy-2,3-dihydro-1H-inden-1-yl)amino)-5-methylthieno[2,3-c]pyridin-2-yl)-2-(4-fluorophenethyl)-5-oxo-8,9-dihydro-5H,7H-8,9a-methanopyrido[2,3-a]pyrrolizin-3-yl)-1,3,4-oxadiazol-2(3H)-one]	0.00749	0.226
COc1cccc2c1CC(F)(F)[C@H]2Nc1nccc2cc(-c3c4c(nc(CCc5ccc(F)cc5)c3-c3n[nH]c(=O)o3)[C@@H]3CCCN3C4=O)sc12 [Compound 194, 5-((S)-4-(7-(((S)-2,2-difluoro-4-methoxy-2,3-dihydro-1H-inden-1-yl)amino)thieno[2,3-c]pyridin-2-yl)-2-(4-fluorophenethyl)-5-oxo-7,8,9,9a-tetrahydro-5H-pyrido[2,3-a]pyrrolizin-3-yl)-1,3,4-oxadiazol-2(3H)-one]	0.229	1.96
COc1c(F)c(F)cc2c1CC[C@H]2Nc1nc(C)cc2cc(-c3c4c(nc(CCc5ccc(F)cc5)c3-c3n[nH]c(=O)o3)C35CC(CN3C4=O)C5)sc12 [Compound 195, (R)-5-(4-(7-((5,6-difluoro-4-methoxy-2,3-dihydro-1H-inden-1-yl)amino)-5-methylthieno[2,3-c]pyridin-2-yl)-2-(4-fluorophenethyl)-5-oxo-8,9-dihydro-5H,7H-8,9a-methanopyrido[2,3-a]pyrrolizin-3-yl)-1,3,4-oxadiazol-2(3H)-one]	0.00616	0.0995
COc1c(F)ccc2c1C[C@@H](F)[C@H]2Nc1nc(C)cc2cc(-c3c4c(nc(CCc5ccc(F)cc5)c3-c3n[nH]c(=O)o3)C35CC(CN3C4=O)C5)sc12 [Compound 196, 5-(4-(7-(((1S,2R)-2,5-difluoro-4-methoxy-2,3-dihydro-1H-inden-1-yl)amino)-5-methylthieno[2,3-c]pyridin-2-yl)-2-(4-fluorophenethyl)-5-oxo-8,9-dihydro-5H,7H-8,9a-methanopyrido[2,3-a]pyrrolizin-3-yl)-1,3,4-oxadiazol-2(3H)-one]	0.00979	0.196
O=C1c2c(nc(CCC3CCOCC3)c(-c3cc(=O)[nH]o3)c2-c2cc3ccnc(N[C@@H]4CCc5ncccc54)c3s2)[C@@H]2CCCN12 [Compound 197, 5-((S)-4-(7-(((R)-6,7-dihydro-5H-cyclopenta[b]pyridin-5-yl)amino)thieno[2,3-c]pyridin-2-yl)-5-oxo-2-(2-(tetrahydro-2H-pyran-4-yl)ethyl)-7,8,9,9a-tetrahydro-5H-pyrido[2,3-a]pyrrolizin-3-yl)isoxazol-3(2H)-one]	58.9	1790
O=c1cc(-c2c(CCC3CCOCC3)nc3c(c2-c2cc4ccnc(N[C@@H]5CCc6ncccc65)c4s2)S(=O)(=O)N2CCC[C@@H]32)o[nH]1 [Compound 198, 5-[(2S)-9-[7-[[(5R)-6,7-dihydro-5H-cyclopenta[b]pyridin-5-yl]amino]thieno[2,3-c]pyridin-2-yl]-7,7-dioxo-11-(2-tetrahydropyran-4-ylethyl)-7thia-6,12-diazatricyclo[6.4.0.02,6]dodeca-1(12),8,10-trien-10-yl]isoxazol-3-one]	19.2	1000
CC(C)C1CS(=O)(=O)c2c1nc(CCC1CCOCC1)c(-c1cc(=O)[nH]o1)c2-c1ccc2c(ccn2Cc2ccc(C#N)c(F)c2)c1 (stereo not shown) [Compound 199, 2-fluoro-4-[[5-[3-isopropyl-1,1-dioxo-6-(3-oxoisoxazol-5-yl)-5-(2-tetrahydropyran-4-ylethyl)-2,3-dihydrothieno[3,2-b]pyridin-7-yl]indol-1-yl]methyl]benzonitrile]	3.7	301
N#Cc1ccc(Cn2ccc3cc(-c4c(-c5cc(=O)[nH]o5)c(CCC5CCOCC5)nc5c4S(=O)(=O)N4CCC[C@@H]54)ccc32)cc1F [Compound 200, 4-[[5-[(2S)-7,7-dioxo-10-(3-oxoisoxazol-5-yl)-11-(2-tetrahydropyran-4-ylethyl)-7thia-6,12-diazatricyclo[6.4.0.02,6]dodeca-1(8),9,11-trien-9-yl]indol-1-yl]methyl]-2-fluoro-benzonitrile]	8.61	1310
O=C1c2c(nc(CCC3CCOCC3)c(-c3cc(=O)[nH]o3)c2-c2ccc3c(ccn3Cc3ccc(F)c(F)c3)c2)[C@@H]2CCCN12 [Compound 201, (S)-5-(4-(1-(3,4-difluorobenzyl)-1H-indol-5-yl)-5-oxo-2-(2-(tetrahydro-2H-pyran-4-yl)ethyl)-7,8,9,9a-tetrahydro-5H-pyrido[2,3-a]pyrrolizin-3-yl)isoxazol-3(2H)-one]	19.3	1370
CC(c1ccc(F)c(F)c1)n1ccc2cc(-c3c4c(nc(CCC5CCOCC5)c3-c3cc(=O)[nH]o3)[C@@H]3CCCN3C4=O)ccc21 (stereo partly drawn) [Compound 202, 5-((9aS)-4-(1-(1-(3,4-difluorophenyl)ethyl)-1H-indol-5-yl)-5-oxo-2-(2-(tetrahydro-2H-pyran-4-yl)ethyl)-7,8,9,9a-tetrahydro-5H-pyrido[2,3-a]pyrrolizin-3-yl)isoxazol-3(2H)-one]	66.2	1750

The next lines start with the values.

EC50 [1] [nM]	EC50 [2] [nM]	Structure (SMILES)
4.69	529	N#Cc1ccc(Cn2c(=O)oc3cc(-c4c5c(nc(CCC6CCOCC6)c4-c4cc(=O)[nH]o4)[C@@H]4CCCN4C5=O)ccc32)cc1F [Compound 203, 4-[[6-[(9aS)-5-oxo-3-(3-oxoisoxazol-5-yl)-2-(2-tetrahydropyran-4-ylethyl)-1,4,7,8,9,9a-hexahydropyrido[2,3-a]pyrrolizin-4-yl]-2-oxo-1,3-benzoxazol-3-yl]methyl]-2-fluoro-benzonitrile]
5.06	266	CC(c1ccc(C#N)c(F)c1)n1ccc2cc(-c3c4c(nc(CCC5CCOCC5)c3-c3cc(=O)[nH]o3)[C@@H]3CCCN3C4=O)ccc21 (stereo partly drawn) [Compound 204, 2-fluoro-4-(1-(5-((S)-5-oxo-3-(3-oxo-2,3-dihydroisoxazol-5-yl)-2-(2-(tetrahydro-2H-pyran-4-yl)ethyl)-7,8,9,9a-tetrahydro-5H-pyrido[2,3-a]pyrrolizin-4-yl)-1H-indol-1-yl)ethyl)benzonitrile]
5.7	342	COc1cccc2c1CC[C@H]2Nc1nccc2cc(-c3c4c(nc(CCC5CCOCC5)c3-c3cc(=O)[nH]o3)[C@@H]3CCCN3C4=O)sc12 [Compound 205, 5-((S)-4-(7-(((R)-4-methoxy-2,3-dihydro-1H-inden-1-yl)amino)thieno[2,3-c]pyridin-2-yl)-5-oxo-2-(2-(tetrahydro-2H-pyran-4-yl)ethyl)-7,8,9,9a-tetrahydro-5H-pyrido[2,3-a]pyrrolizin-3-yl)isoxazol-3(2H)-one]
26.1	1590	O=C1c2c(nc(CCC3CCOCC3)c(-c3cc(=O)[nH]o3)c2-c2cc3ccnc(NCc4ccc(F)c(F)c4)c3s2)[C@@H]2CCCN12 [Compound 206, (S)-5-(4-(7-((3,4-difluorobenzyl)amino)thieno[2,3-c]pyridin-2-yl)-5-oxo-2-(2-(tetrahydro-2H-pyran-4-yl)ethyl)-7,8,9,9a-tetrahydro-5H-pyrido[2,3-a]pyrrolizin-3-yl)isoxazol-3(2H)-one]
0.309	11.3	COc1cccc2c1CC[C@H]2Nc1nc(C)cc2cc(-c3c4c(nc(CCc5ccc(F)cc5)c3-c3n[nH]c(=O)o3)[C@@H]3CCCN3C4=O)sc12 [Compound 207, 5-((S)-2-(4-fluorophenethyl)-4-(7-(((R)-4-methoxy-2,3-dihydro-1H-inden-1-yl)amino)-5-methylthieno[2,3-c]pyridin-2-yl)-5-oxo-7,8,9,9a-tetrahydro-5H-pyrido[2,3-a]pyrrolizin-3-yl)-1,3,4-oxadiazol-2(3H)-one]
